Reference: US20170367338A1, “COMPOSITIONS AND METHODS FOR IMPROVING AGRONOMIC CHARACTERISTICS OF PLANTS” (MONSANTO TECHNOLOGY LLC, priority 2014, published 2017)
Like-named read-outs stand apart in the source and are kept apart here. Marks after values point to notes of the source that are not given here.

Assays:
[1] = system: soybean cyst nematode (SCN); experiment: SCN greenhouse sand assay on soybean plants; assay type: in vivo; details: Glycine max, 672 h, read-out: percent control (cyst number reduction) relative to the control blank treatment
root knot nematode (RKN) = experiment: RKN greenhouse soil assay on cucumber plants; assay type: in vivo; details: for percent control (galling reduction) relative to the control blank treatment: 0 day treatment
Text: Cucumber seeds are planted in a sandy soil mixture in two inch square plastic pots. When the cotyledons are fully opened and just as the first leaf begins to emerge, usually 7 days after planting, chemistry for the 7 day treatment is applied. One week later the chemistry for the 0 day treatment is applied. Separate plants are used for each application. The plants are generally in the 1-2 leaf stage now. At least four hours after the chemistry application the pots are inoculated with root knot nematode (RKN) eggs. Plants are rated for galling 14 days after the egg inoculation.
One milligram of chemistry per four pots is equal to one kilogram per hectare of chemical. A standard test uses four replications. For rates above 2 kg/ha, the desired amount of chemical is weighed into a 30 ml vial (example: 8 kg/ha rate =8 mg chemical in 30 ml vial). The chemical is dissolved in 2 ml of appropriate solvent, generally acetone. For rates below 2 kg/ha, 2 milligrams of chemistry is weighed into the vial and dissolved in 2 ml of the solvent. The appropriate amount of chemical concentrate is then pipetted into a separate 30 ml vial and solvent is added to bring the volume to 2 ml (example 0.5 kg/ha=0.5 ml of concentrate+1.5 ml solvent). Each dissolved concentrate is then brought to a total of 20 milliliters using 0.05% Triton X 100 surfactant solution.
Pots to be treated are moist but not saturated. To each of four pots, five milliliters of the appropriate chemical solution is pipetted to the media surface making sure to avoid contact with the base of the plant. Immediately following chemical application, using a mist nozzle, the pot surface is wetted sufficiently to saturate the pot watering in the chemistry. The chemical application is done in the morning.
Nematode eggs, either SCN or RKN, are added to distilled water to create a concentration of 1000 vermiform eggs […]. At least four hours after chemical treatment the eggs are applied to the treated pots plus non-treated check plants. A small hole about 1 cm deep is punched into the pot surface. One milliliter of the nematode egg slurry is pipetted into the hole. Immediately afterwards the hole is gently covered. Watering of the test plants is then restricted to only water as needed to prevent wilt for a period of 24 hours. After the 24 hour restricted watering, normal sub-irrigation watering is done for the duration of the test.

root knot nematode = experiment: Pre-plant incorporated (PPI) greenhouse test of root knot nematode on cucumber plants; assay type: in vivo; details: for pest or weed control at 4000 g/ha: 4 kg/ha, read-out: percent control (galling reduction), 4 kg/ha rate; for pest or weed control at 8000 g/ha: 8 ka/ha, read-out: percent control (galling reduction), 8 ka/ha rate
How it was run: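 Compound in acetone, diluted in 0.05% X100, was mixed into a field soil/sand mix at doses simulating 8, 4 and 2 kg/ha incorporated 15 cm deep, with 4 pots per treatment. Cucumber was seeded and root knot nematode eggs were applied 7, 14 or 21 days after soil treatment. Harvest followed 14 days after inoculation.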

caspase-3 = experiment: Caspase-3 activity in H4IIE cells (DEVD-AMC); assay type: cell-based; details: rat hepatoma derived H4IIE cells, concentrations up to 300 μM
Description: To evaluate whether the compound classes of this invention are able to induce apoptosis, caspase-3 activity was determined after compound exposure in rat hepatoma derived H4IIE cells using a caspase substrate (DEVD, Asp-Glu-Val-Asp) labeled with a fluorescent molecule, 7-Amino-4-methylcoumarin (AMC). Caspase 3 cleaves the tetrapeptide between D and AMC, thus releasing the fluorogenic […] AMC. Following the test article exposure to cells in 96-well plates, medium was aspirated from plates and PBS added to each well. Plates were stored at −80° C. to lyse cells and store samples until further analysis. On the day of analysis, plates were removed from freezer and thawed. Caspase buffer with fluorescent substrate was added to each well and incubated at room temperature for one hour. AMC release was measured in a spectrofluorometer at an excitation wavelength of 360 nm and an emission wavelength of 460 nm. Values are expressed as relative fluorescent units (RFU).

[2] = 168 h, seven day pre-plant incorporated
[3] = 336 h, fourteen day pre-plant incorporated, test a
[4] = 504 h, twenty one day pre-plant incorporated
[5] = fourteen day pre-plant incorporated, test a

| SMILES | pest or weed control at 2000 g/ha ([1]; 2 kg/ha, test a) [%] | percent control (galling reduction) relative to the control blank treatment (root knot nematode (RKN); 0.05 kg/ha, test a) | percent control (galling reduction) relative to the control blank treatment (root knot nematode (RKN); 0.25 kg/ha, test a) [%] | percent control (galling reduction), Acetone 1 mg/kg (root knot nematode (RKN); Acetone formulation (10% acetone in 0.05% Triton X 100), 1 mg/kg) [%] | pest or weed control at 4000 g/ha (root knot nematode; [2]) [%] | pest or weed control at 8000 g/ha (root knot nematode; [2]) [%] | pest or weed control at 4000 g/ha (root knot nematode; [3]) [%] | pest or weed control at 4000 g/ha (root knot nematode; [4]) [%] | pest or weed control at 8000 g/ha (root knot nematode; [4]) [%] | percent control (galling reduction), 2 kg/ha rate (root knot nematode; [5]) | pest or weed control at 8000 g/ha (root knot nematode; [5]) [%] | induction of caspase-3 (caspase-3) | pest or weed control at 100 g/ha ([1]; 0.1 kg/ha, test d) [%] | pest or weed control at 250 g/ha ([1]; 0.25 kg/ha, test d) [%] | percent control (galling reduction) relative to the control blank treatment (root knot nematode (RKN); 0.1 kg/ha, test a) [%] | percent control (galling reduction) relative to the control blank treatment (root knot nematode (RKN); 0.25 kg/ha, test c) [%] | pest or weed control at 4000 g/ha (root knot nematode; 336 h, fourteen day pre-plant incorporated, test b) [%] | pest or weed control at 8000 g/ha (root knot nematode; fourteen day pre-plant incorporated, test b) [%] |
| --- | --- | --- | --- | --- | --- | --- | --- | --- | --- | --- | --- | --- | --- | --- | --- | --- | --- | --- |
| c1ccc(-c2noc(-c3cccs3)n2)cc1 [compound 1822] | 100 | 7^a percent | 60 | 94 | 99 | 99 | 97 | 82 | 95 | 67^a percent | 100 | no induction of caspase-3 |  |  |  |  |  |  |
| Cc1cc(Cl)ccc1-c1noc(-c2ccco2)n1 [compound 5823] |  |  |  |  |  |  | 98 |  |  | 85^a percent | 100 | no induction of caspase-3 | 38 | 69 | 85 | 98 | 94 | 100 |
